# Source: patent EP4755890A1, “OXO-TRICYCLIC DERIVATIVE AND PHARMACEUTICAL USE THEREOF” (Haisco Pharmaceutical Group Co., Ltd., priority 2023, dated 2025)
# Experiments:
# [1] = target: T1, WRN protein (AA N517-P1238, ICE, Cat. S2212T-H56HZ) (Homo sapiens, UniProt Q14191); test: Assay for WRN helicase activity (FORKF dsDNA unwinding, fluorescence); format: biochemical; settings: inhibition of WRN helicase activity; 10 nM WRN, 10 nM FORKF, 2 mM ATP
# T1 construct: WRN protein (AA N517-P1238, ICE, Cat. S2212T-H56HZ); purchased ICE S2212T-H56HZ
# T1 sequence (Q14191 517-1238, stated change not applied): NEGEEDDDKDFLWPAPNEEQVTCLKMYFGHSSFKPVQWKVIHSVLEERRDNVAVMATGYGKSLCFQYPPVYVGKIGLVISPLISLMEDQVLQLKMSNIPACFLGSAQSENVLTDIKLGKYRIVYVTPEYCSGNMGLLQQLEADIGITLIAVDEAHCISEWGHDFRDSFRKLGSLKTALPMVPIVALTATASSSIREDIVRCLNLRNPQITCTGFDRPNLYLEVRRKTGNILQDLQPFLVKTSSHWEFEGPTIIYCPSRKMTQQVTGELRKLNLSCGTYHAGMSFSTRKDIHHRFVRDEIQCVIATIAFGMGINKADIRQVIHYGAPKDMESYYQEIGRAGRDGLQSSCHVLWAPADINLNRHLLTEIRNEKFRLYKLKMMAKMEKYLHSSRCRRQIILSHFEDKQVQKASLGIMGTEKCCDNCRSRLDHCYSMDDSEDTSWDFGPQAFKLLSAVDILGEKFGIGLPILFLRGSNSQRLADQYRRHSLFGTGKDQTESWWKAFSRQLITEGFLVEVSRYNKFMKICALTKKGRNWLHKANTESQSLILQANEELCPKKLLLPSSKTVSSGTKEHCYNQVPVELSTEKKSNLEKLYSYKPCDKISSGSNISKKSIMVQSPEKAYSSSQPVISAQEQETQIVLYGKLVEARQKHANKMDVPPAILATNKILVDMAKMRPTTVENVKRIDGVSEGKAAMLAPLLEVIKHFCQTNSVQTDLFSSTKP
# Method: The assay buffer working solution prepared with RNAase-free water was as follows: 25 mM Tris (pH 7.5), 2 mM MgCl2, 50 mM NaCl, 0.02% BSA, 0.01% Tween, and 1 mM DTT. WRN protein (AA N517-P1238, ICE, Cat. S2212T-H56HZ) was obtained through protein expression and purification in vitro. Two single-stranded DNAs were synthesized: […]-BHQ2 (quencher), and (fluorophore) TAMRA-[…]. dsDNA (FORKF) was obtained via annealing of the two single-stranded DNAs. When the WRN protein bound to FORKF, the dsDNA was unwound, exposing the fluorophore, thereby generating fluorescence. 2 µL of compounds at different concentrations and 4 µL of WRN protein were added to a 384-well black plate (Greiner, Cat#784075). The plate was pre-incubated at room temperature for 20 minutes. 2 µL each of ATP and the FORKF substrate were added. The working concentrations of the WRN protein, FORKF, and ATP were 10 nM, 10 nM, and 2 mM, respectively. The plate was incubated at room temperature for 20 minutes. After the incubation was completed, the fluorescence value was read at Ex 540 nm/Em 590 nm using a BMG microplate reader (PHERAstar FSX).
# The inhibition rate was calculated according to Formula 2, where RLUsample is the readout of the compound well, RLUmax is the readout of the DMSO control well, and RLUmin is the readout of the control well without the WRN protein. Curve fitting was performed via a four-parameter logistic model using GraphPad Prism software, and the IC50 value (the concentration of the compound when the inhibition rate was 50%) was calculated. Inhibition% = (1−(RLUsample−RLUmin)/(RLUmax−RLUmin)) × 100% [formula] Table 2. Results of inhibitory activity of test compounds against WRN helicase activity
# [2] = test system: SW48 cells; test: SW48 cell proliferation inhibition assay (CellTiter-Glo); format: cell-based; settings: Homo sapiens, 96 h, 4 days, read-out: Inhibitory activity against SW48 cell proliferation IC50
# Method: The culture conditions for SW48 cells were as follows: Leibovitz L15 + 10% FBS + 1% penicillin-streptomycin, and the cells were cultured in an incubator without CO2 at 37°C. On the first day, the SW48 cells in the exponential growth phase were collected and plated in 96-well cell culture plates at a density of 1000 cells/well (180 µL/well). The plates were cultured overnight in an incubator without CO2 at 37°C. T0 wells were plated simultaneously during the plating process. The next day, 20 µL of compounds at different concentrations were added to each well (nine compound concentration gradients, one DMSO well, and one blank well; each compound concentration was plated in triplicate), and the final concentration of DMSO in each well was 0.1%. The plates were cultured in an incubator without CO2 at 37°C for 4 days. On the same day of compound addition, the T0 plate was detected using the CellTiter-Glo Kit, and the detected value was recorded as RLU0. After the culture was completed, 100 µL of detection solution (Cell Viability Assay, Promega) was added to each well. The plates were incubated at room temperature for 10 minutes with slow shaking. The chemiluminescence reading was read using a BMG microplate reader (PHERAstar FSX). The results were processed according to Formula (5) to calculate the proliferation inhibition rate of compounds at each concentration. Curve fitting was performed via a four-parameter logistic model using GraphPad Prism software, and the GI50 value (the concentration of the compound when the proliferation inhibition rate was 50%) was calculated. In the formula, RLUcompound is the readout of the drug-treated group, RLUcontrol is the average value of the compound vehicle control group, and RLUBlank is the average value of the blank control group. [formula] Table 3. Results of inhibitory activity of test compounds against cell proliferation
# [3] = target: T2, CYP1A2 (Homo sapiens, UniProt P05177); test: CYP450 enzyme activity inhibition assay, CYP1A2; format: in vitro ADME
# T2 construct: co-incubated with human liver microsomes; from tissue; host or cells: human liver microsomes
# T2 sequence (P05177 1-516): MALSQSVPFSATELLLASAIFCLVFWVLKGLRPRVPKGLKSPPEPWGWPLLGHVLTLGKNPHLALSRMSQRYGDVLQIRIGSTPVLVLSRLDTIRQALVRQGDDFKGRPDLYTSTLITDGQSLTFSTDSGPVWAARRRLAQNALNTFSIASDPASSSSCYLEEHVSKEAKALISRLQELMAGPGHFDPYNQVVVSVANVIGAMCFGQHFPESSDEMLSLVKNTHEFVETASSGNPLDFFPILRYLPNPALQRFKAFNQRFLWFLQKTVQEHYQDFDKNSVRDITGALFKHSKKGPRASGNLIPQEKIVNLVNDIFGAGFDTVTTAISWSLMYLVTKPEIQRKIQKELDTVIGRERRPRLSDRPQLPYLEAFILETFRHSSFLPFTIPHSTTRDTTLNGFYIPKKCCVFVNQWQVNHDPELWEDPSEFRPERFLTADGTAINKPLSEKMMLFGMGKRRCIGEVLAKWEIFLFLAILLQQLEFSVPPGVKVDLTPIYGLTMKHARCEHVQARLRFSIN
# Method: (§1) The purpose of this study was to evaluate the effects of the test compounds on the activities of five isoenzymes (CYP1A2, CYP2C9, CYP2C19, CYP2D6, and CYP3A4) of human liver microsomal cytochrome P450 (CYP) using an in vitro testing system. The specific probe substrates for each CYP450 isoenzyme were co-incubated with human liver microsomes and the test compounds at different concentrations, and reduced nicotinamide adenine dinucleotide phosphate (NADPH) was added to initiate the reaction. After the reactions were completed, the samples were treated, and liquid chromatography-tandem mass spectrometry (LC-MS/MS) was used to quantitatively detect metabolites produced by the specific substrates. The changes in CYP enzyme activities were determined, and the IC50 values were calculated to evaluate the inhibitory potential of the test compounds against each CYP enzyme subtype.
# [4] = target: T3, CYP2C9 (Homo sapiens, UniProt P11712); test: CYP450 enzyme activity inhibition assay, CYP2C9; format: in vitro ADME
# T3 construct: co-incubated with human liver microsomes; from tissue; host or cells: human liver microsomes
# T3 sequence (P11712 whole entry): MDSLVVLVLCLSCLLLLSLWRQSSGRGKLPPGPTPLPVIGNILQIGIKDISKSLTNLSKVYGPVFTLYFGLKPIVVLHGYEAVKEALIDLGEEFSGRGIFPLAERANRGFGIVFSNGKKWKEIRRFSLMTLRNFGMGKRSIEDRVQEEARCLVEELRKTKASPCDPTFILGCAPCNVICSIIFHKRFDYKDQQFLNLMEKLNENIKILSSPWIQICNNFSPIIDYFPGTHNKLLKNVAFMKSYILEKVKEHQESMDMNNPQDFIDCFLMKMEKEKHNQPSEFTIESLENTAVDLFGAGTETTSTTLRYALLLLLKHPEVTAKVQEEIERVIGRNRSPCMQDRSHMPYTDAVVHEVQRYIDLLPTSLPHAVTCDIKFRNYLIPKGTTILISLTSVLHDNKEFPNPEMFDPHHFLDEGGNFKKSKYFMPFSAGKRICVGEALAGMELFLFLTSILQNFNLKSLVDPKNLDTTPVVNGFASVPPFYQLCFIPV
# Method: as §1
# [5] = target: T4, CYP2C19 (Homo sapiens, UniProt P33261); test: CYP450 enzyme activity inhibition assay, CYP2C19; format: in vitro ADME
# T4 construct: co-incubated with human liver microsomes; from tissue; host or cells: human liver microsomes
# T4 sequence (P33261 whole entry): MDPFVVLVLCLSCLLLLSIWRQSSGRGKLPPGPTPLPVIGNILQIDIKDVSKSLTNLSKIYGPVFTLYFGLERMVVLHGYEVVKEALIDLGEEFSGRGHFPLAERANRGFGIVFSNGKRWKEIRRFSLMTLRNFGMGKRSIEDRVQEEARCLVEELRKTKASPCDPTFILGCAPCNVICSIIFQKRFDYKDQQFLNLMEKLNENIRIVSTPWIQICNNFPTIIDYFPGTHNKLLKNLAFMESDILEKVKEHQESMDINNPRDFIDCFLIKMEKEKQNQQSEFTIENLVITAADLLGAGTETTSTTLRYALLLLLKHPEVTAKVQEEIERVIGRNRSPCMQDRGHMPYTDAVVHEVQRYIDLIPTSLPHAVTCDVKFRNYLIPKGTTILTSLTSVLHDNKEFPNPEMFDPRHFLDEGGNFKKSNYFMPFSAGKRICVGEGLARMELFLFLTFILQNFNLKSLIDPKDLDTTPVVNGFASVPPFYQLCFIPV
# Method: as §1
# [6] = target: T5, CYP2D6 (Homo sapiens, UniProt P10635); test: CYP450 enzyme activity inhibition assay, CYP2D6; format: in vitro ADME
# T5 construct: co-incubated with human liver microsomes; from tissue; host or cells: human liver microsomes
# T5 sequence (P10635 whole entry): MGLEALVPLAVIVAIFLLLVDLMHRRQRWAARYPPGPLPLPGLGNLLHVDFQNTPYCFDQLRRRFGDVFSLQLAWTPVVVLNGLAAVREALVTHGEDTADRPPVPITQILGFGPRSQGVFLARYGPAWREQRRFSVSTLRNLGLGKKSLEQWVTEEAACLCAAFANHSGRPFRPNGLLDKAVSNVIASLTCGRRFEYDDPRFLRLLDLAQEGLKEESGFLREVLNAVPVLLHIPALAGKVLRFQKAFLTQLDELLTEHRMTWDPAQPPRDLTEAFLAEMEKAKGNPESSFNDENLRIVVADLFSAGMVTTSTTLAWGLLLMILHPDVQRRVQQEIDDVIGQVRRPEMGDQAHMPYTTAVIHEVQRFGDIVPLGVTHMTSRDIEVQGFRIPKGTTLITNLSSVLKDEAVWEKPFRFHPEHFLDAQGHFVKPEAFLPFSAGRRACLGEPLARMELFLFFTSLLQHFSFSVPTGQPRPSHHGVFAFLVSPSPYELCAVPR
# Method: as §1
# [7] = target: T6, CYP3A4 (Homo sapiens, UniProt P08684); test: CYP450 enzyme activity inhibition assay, CYP3A4; format: in vitro ADME
# T6 construct: co-incubated with human liver microsomes; from tissue; host or cells: human liver microsomes
# T6 sequence (P08684 whole entry): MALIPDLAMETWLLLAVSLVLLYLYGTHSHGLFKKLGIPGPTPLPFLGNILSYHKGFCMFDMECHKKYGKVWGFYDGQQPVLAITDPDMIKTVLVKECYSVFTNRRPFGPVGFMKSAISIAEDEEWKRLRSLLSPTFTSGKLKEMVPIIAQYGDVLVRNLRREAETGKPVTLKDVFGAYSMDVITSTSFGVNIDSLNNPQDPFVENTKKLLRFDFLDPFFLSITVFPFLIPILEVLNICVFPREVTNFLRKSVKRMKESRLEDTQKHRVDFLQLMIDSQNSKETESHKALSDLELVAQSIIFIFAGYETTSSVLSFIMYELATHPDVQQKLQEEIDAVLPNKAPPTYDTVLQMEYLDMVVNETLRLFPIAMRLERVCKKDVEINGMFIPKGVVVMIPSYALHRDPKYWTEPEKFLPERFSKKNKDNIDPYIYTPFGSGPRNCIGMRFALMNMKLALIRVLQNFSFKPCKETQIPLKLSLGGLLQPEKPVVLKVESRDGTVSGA
# Method: as §1
smiles,measurement,setting,value
"Cc1ncnc(C(=O)N2CCN(c3c4n(c5nc(C6=CCOCC6)nn5c3=O)C(C(=O)Nc3ccc(C(F)(F)F)cc3Cl)CCC4)C[C@H]2C)c1O (single isomer, unassigned) [Compound 8-B]",IC50,[1],< 0.02 µM
same,IC50,[2],< 0.1 µM
same,IC50,[3],> 30 µM
same,IC50,[4],> 30 µM
same,IC50,[5],> 30 µM
same,IC50,[6],> 30 µM
same,IC50,[7],> 30 µM
Cc1ncnc(C(=O)N2CCN(c3c4n(c5nc(C6=CCOCC6)nn5c3=O)[C@@H](C(=O)Nc3ccc(C(F)(F)F)cc3Cl)CCC4)CC2)c1O [Compound 1-B],IC50,[1],< 0.02 µM
same,IC50,[2],< 0.1 µM
same,IC50,[3],> 30 µM
same,IC50,[4],> 30 µM
same,IC50,[5],> 30 µM
same,IC50,[6],> 30 µM
same,IC50,[7],> 30 µM
Cc1ncnc(C(=O)N2[C@@H](C)CN(c3c4n(c5nc(C6=CCOCC6)nn5c3=O)[C@@H](C(=O)Nc3ccc(C(F)(F)F)cc3Cl)CCC4)C[C@@H]2C)c1O [Compound 20-A],IC50,[1],< 0.02 µM
same,IC50,[2],< 0.1 µM
same,IC50,[3],> 30 µM
same,IC50,[4],> 30 µM
same,IC50,[5],> 30 µM
same,IC50,[6],> 30 µM
same,IC50,[7],> 30 µM
